The nature of this series: in vitro. Conditions: rat, gh3-tre-luc cells.

Structures can show the parent of a compound that is named as a salt.

The CC50 is the concentration at which the toxic effect on the cells reaches its halfway point.

`CS/C(C)=N\OC(=O)N(C)SN(C)C(=O)O/N=C(\C)SC` [Thiodicarb] gave a CC50 at 24 h (AC50 (uM) modified / 1000) of 39.7 µM. Still for that read-out and setting: the result for `CC(=O)OCC(=O)[C@@]12OC3(CCCC3)O[C@@H]1C[C@H]1[C@@H]3CCC4=CC(=O)C=C[C@]4(C)[C@@]3(F)[C@@H](O)C[C@@]12C` [Amcinonide] reads > 50 µM; that for `COC(=O)CSc1cc(/N=c2\sc(=O)n3n2CCCC3)c(F)cc1Cl` [Fluthiacet-methyl], > 90 µM. Still for that read-out and setting: the result for `CC1CN(c2ccccc2)NC1=O` (stereo not shown) [4-Methyl-1-phenylpyrazolidin-3-one] reads > 90 µM. Still for that read-out and setting: next, `Cc1cc([N+](=O)[O-])ccc1N` [2-Methyl-4-nitroaniline]: > 90 µM; `CC(O)CN(C)C` (stereo not shown) [Dimepranol]: > 50 µM. For the compound `CS(=O)(=O)Nc1cc2occ(NC=O)c(=O)c2cc1Oc1ccccc1` [Iguratimod], the CC50 at 24 h (AC50 (uM) modified / 1000) was > 50 µM. Same read-out and setting: next, `CCC(C)Nc1ccc(NC(C)CC)cc1` (stereo not shown) [N,N'-Bis(1-methylpropyl)-1,4-benzenediamine]: 14 µM. Same read-out and setting: the result for `COC(=O)c1ccccc1` [Methyl benzoate] reads > 90 µM; that for `O=C(O)c1cc(Cl)cc(Cl)c1` [3,5-Dichlorobenzoic acid], > 90 µM. On to `CC(C)[C@H](N)C(=O)OCC(CO)OCn1cnc2c(=O)nc(N)[nH]c21` (stereo partly shown) [Valganciclovir hydrochloride], for which the CC50 at 24 h (AC50 (uM) modified / 1000) was > 50 µM. Regarding `CC(=O)[C@H]1CC[C@H]2[C@@H]3CC[C@@H]4C[C@H](O)CC[C@]4(C)[C@H]3CC[C@]12C` [Eltanolone], the CC50 at 24 h (AC50 (uM) modified / 1000, Tox21_110001=Tox21_112042, viability, 1 nM T3 present, 24 h) was > 50 µM. Turning to `CC1(C)C(=O)NC(=O)N1CO` [1-(Hydroxymethyl)-5,5-dimethylhydantoin], the CC50 at 24 h (AC50 (uM) modified / 1000) was > 90 µM. Still for that read-out and setting: the result for `O=c1[nH][nH]c(=O)c2cc([N+](=O)[O-])ccc12` [6-Nitrophthalhydrazide] reads > 90 µM; that for `O=C(O)c1c(Cl)ccc2cc(Cl)cnc12` [Quinclorac], > 90 µM; that for `O=Cc1cc(O)ccc1Br` [2-Bromo-5-hydroxy-benzaldehyde], > 90 µM.

Turning to `Cn1cnc2c(F)c(Nc3ccc(Br)cc3Cl)c(C(=O)NOCCO)cc21` [Selumetinib], where the note is “AC50 (uM) modified / 1000”, the CC50 at 24 h was > 50 µM.

As for `O=C(O)c1cccc(/C=C2/C[C@@H]3[C@@H](/C=C/[C@@H](O)C4CCCCC4)[C@H](O)C[C@@H]3O2)c1` [Taprostene sodium salt], the CC50 at 24 h (AC50 (uM) modified / 1000) was > 50 µM. `CN(C)N` [1,1-Dimethylhydrazine]: under “AC50 (uM) modified / 1000, Tox21_110001=Tox21_302358, viability, 1 nM T3 present, 24 h”, the CC50 at 24 h is > 90 µM. Consider `CN(C)CCCNCCC#N` [3-{[3-(Dimethylamino)propyl]amino}propanenitrile], for which the CC50 at 24 h (AC50 (uM) modified / 1000) was > 90 µM.

Consider `CC(=O)CC(=O)Nc1ccc2[nH]c(=O)[nH]c2c1` [3-Oxo-N-(2-oxo-2,3-dihydro-1H-benzimidazol-5-yl)butanamide], for which, under “AC50 (uM) modified / 1000”, the CC50 at 24 h is > 90 µM. On the same count and under the same terms, next, `Cc1ccc2c(c1)C(=O)c1ccccc1C2=O` [2-Methylanthraquinone]: > 90 µM; `CCCN(CCc1cccs1)[C@H]1CCc2c(O)cccc2C1` [Rotigotine]: 40.9 µM; `CN(C)Cc1cc(C(C)(C)C)c(O)c(C(C)(C)C)c1` [2,6-Di-tert-butyl-4-[(dimethylamino)methyl]phenol]: 50.7 µM. Same read-out and setting: next, `C/C=C/c1ccc(OC)cc1` [Anethole]: > 90 µM. For `Oc1ccc(-c2ccccc2)cc1` [4-Phenylphenol], half-maximal cytotoxicity (AC50 (uM) modified / 1000, Tox21_110001=Tox21_202220, viability, 1 nM T3 present, 24 h) (CC50 at 24 h) was put at 62.2 µM and the CC50 at 24 h (AC50 (uM) modified / 1000, Tox21_110001=Tox21_302734, viability, 1 nM T3 present, 24 h) was > 90 µM. In the case of `CCCCCCCCCCCCCCCCCC#N` [Octadecanenitrile], the CC50 at 24 h (AC50 (uM) modified / 1000) was > 90 µM.

Take `O=P(O)(O)C(O)(Cc1cccnc1)P(=O)(O)O` [Risedronate sodium]: the CC50 at 24 h (AC50 (uM) modified / 1000) was > 50 µM. `CCCCCCCC[N+](CCCCCCCC)(CCCCCCCC)CCCCCCCC` [Tetra-N-octylammonium bromide] returned a CC50 at 24 h (AC50 (uM) modified / 1000) of 2.56 µM. The same measure, in the same setting: next, `CCCC/C=C/CCCCO` [(E)-5-Decen-1-ol]: > 90 µM.

Turning to `CCCCCCCCCCCCCCCC(=O)O[C@@H]1CC(C)=C(/C=C/C(C)=C/C=C/C(C)=C/C=C/C=C(C)/C=C/C=C(C)/C=C/C2=C(C)C[C@@H](OC(=O)CCCCCCCCCCCCCCC)CC2(C)C)C(C)(C)C1` [Physalien], the CC50 at 24 h (AC50 (uM) modified / 1000) is > 50 µM. As for `CC(C)CP(=S)(S)CC(C)C` [Sodium bis(2-methylpropyl)phosphinodithioate], where the note is “AC50 (uM) modified / 1000, Tox21_110001=Tox21_301761, viability, 1 nM T3 present, 24 h”, the CC50 at 24 h is > 90 µM. `NC(=O)CC[C@H](Nc1ccc([N+](=O)[O-])cc1)C(=O)O` [N2-(4-Nitrophenyl)-L-glutamine hydrochloride]: the CC50 at 24 h (AC50 (uM) modified / 1000) was > 90 µM. On the same count and under the same terms, next, `COC(=O)C1=C(C)NC(C)=C(C(=O)OC(C)C)C1c1cccc2nonc12` (stereo not shown) [Isradipine]: > 20 µM; `CC(C)CCCCCCOC(=O)c1ccccc1C(=O)OCCCCCCC(C)C` [Diisononyl phthalate]: > 90 µM; `CNCC(=O)N[C@@H](CCCN=C(N)N)C(=O)N[C@H](C(=O)N[C@@H](Cc1ccc(O)cc1)C(=O)N[C@H](C(=O)N[C@@H](Cc1cnc[nH]1)C(=O)N1CCC[C@H]1C(=O)N[C@@H](C)C(=O)O)C(C)C)C(C)C` [Saralasin]: > 50 µM. Consider `CCC/C=C/CO` [(E)-2-Hexen-1-ol], for which the CC50 at 24 h (AC50 (uM) modified / 1000) is > 90 µM. Still for that read-out and setting: next, `CC(=O)N1C[C@H](O)C[C@H]1C(=O)O` [Oxaceprol]: > 50 µM. As for `CCCCCCCCCC(=O)N(C)C` [N,N-Dimethyldecanamide], the CC50 at 24 h (AC50 (uM) modified / 1000) was > 90 µM. For the compound `Clc1ccc2[nH]nnc2c1` [5-Chlorobenzotriazole], under “AC50 (uM) modified / 1000”, the CC50 at 24 h was > 90 µM. The same measure, in the same setting: the result for `O=CNNC=O` [1,2-Diformylhydrazine] reads > 90 µM; that for `O=C(C[S+]([O-])Cc1ccco1)NC/C=C\COc1cc(CN2CCCCC2)ccn1` (stereo not shown) [Lafutidine], > 50 µM. For the compound `FC(F)(F)c1cccc(C2=CCN(CCc3ccc4ccncc4c3)CC2)c1` [SSR150106], the CC50 at 24 h (AC50 (uM) modified / 1000) worked out at 76.9 µM. That is a double-digit micromolar value. The same measure, in the same setting: next, `CN(Cc1ccccc1)Cc1ccccc1` [Dibemethine]: > 50 µM; `CCCC(=O)c1ccccc1` [Butyrophenone]: > 90 µM.

In the case of `NCCNCCN` [Diethylenetriamine], the CC50 at 24 h (AC50 (uM) modified / 1000) is > 90 µM. Same read-out and setting: next, `COC(=O)CCC(=O)OC` [Dimethyl succinate]: > 90 µM.

In the case of `CCCCCCCCCCOC(C)=O` [Decyl acetate], for the setting “AC50 (uM) modified / 1000”, the CC50 at 24 h is > 90 µM. For the compound `Nc1ccc(C(=O)OCCCOC(=O)c2ccc(N)cc2)cc1` [Propane-1,3-diyl bis(4-aminobenzoate)], the CC50 at 24 h (AC50 (uM) modified / 1000) was > 90 µM. As to `CN(N=O)C(N)=O` [N-Nitroso-N-methylurea], the CC50 at 24 h (AC50 (uM) modified / 1000, Tox21_110001=Tox21_302850, viability, 1 nM T3 present, 24 h) is > 90 µM. In the case of `CC(=O)Nc1ccc(OC(=O)c2ccccc2OC(C)=O)cc1` [Benorylate], the CC50 at 24 h (AC50 (uM) modified / 1000) was > 50 µM. Same read-out and setting: the result for `C=CC(=O)OCCCCCC` [Hexyl acrylate] reads > 90 µM; that for `NCCOCCO` [2-(2-Aminoethoxy)ethanol], > 90 µM. The same measure, in the same setting: next, `CC(C(=O)O)c1ccc2c(c1)CC(=O)c1ccccc1S2` (stereo not shown) [Zaltoprofen]: > 50 µM. Same read-out and setting: next, `CNCCS(=O)(=O)O` [Sodium 2-(methylamino)ethanesulfonate]: > 90 µM. In the case of `Cc1cccc(C)c1N=C1NCCCS1` [Xylazine], the cytotoxic concentration (CC50) at 24 h (AC50 (uM) modified / 1000, Tox21_110001=Tox21_110303, viability, 1 nM T3 present, 24 h) is > 50 µM. Regarding `c1cc[n+]2c(c1)-c1cccc[n+]1CC2` [Diquat dibromide monohydrate], the CC50 at 24 h (AC50 (uM) modified / 1000) is > 50 µM.

With `C[C@]12C=CC(=O)C=C1CC[C@@H]1[C@@H]2C(=O)C[C@@]2(C)[C@H]1CC[C@]2(O)C(=O)CO` [Prednisone], for the setting “AC50 (uM) modified / 1000”, the CC50 at 24 h is > 90 µM.

Consider `O=C(NC(=O)c1c(F)cccc1F)Nc1ccc(OC(F)(F)C(F)OC(F)(F)F)c(Cl)c1` (stereo not shown) [Novaluron], for which the CC50 at 24 h (AC50 (uM) modified / 1000) was > 50 µM. The same measure, in the same setting: the result for `CCCN(CCC)C(=O)Cc1c(-c2ccc(Cl)cc2)nc2ccc(Cl)cn12` [Alpidem] reads > 50 µM.

For the compound `CCN(CC)c1c([N+](=O)[O-])cc(C(F)(F)F)c(N)c1[N+](=O)[O-]` [Dinitramine], for the setting “AC50 (uM) modified / 1000”, the CC50 at 24 h is 85.3 µM. Same read-out and setting: the result for `CCCCCCCCCCCCCCCC(=O)O[C@@H]1[C@@H](O)[C@@H](O)[C@@H]([C@H](NC(=O)[C@@H]2C[C@@H](CCC)CN2C)[C@H](C)Cl)O[C@@H]1SC` [Clindamycin palmitate hydrochloride] reads > 50 µM. For `Cc1ccc(N)c(C)c1` [2,4-Dimethylaniline], the CC50 at 24 h (AC50 (uM) modified / 1000) is > 90 µM. The same measure, in the same setting: the result for `COc1cc(Cl)c(OC)cc1N` [2,5-Dimethoxy-4-chloroaniline] reads > 90 µM; that for `C1=CCC2CC=CC2C1` (stereo not shown) [3a,4,7,7a-Tetrahydroindene], > 90 µM; that for `COC(=O)CC(=O)C(C)(C)C` [Methyl pivaloylacetate], > 90 µM.

Take `NCCCC(N)(C(=O)O)C(F)F` (stereo not shown) [Eflornithine hydrochloride]: the CC50 at 24 h (AC50 (uM) modified / 1000) was > 50 µM. As for `CC(C)[N+](=O)[O-]` [2-Nitropropane], the CC50 at 24 h (AC50 (uM) modified / 1000, Tox21_110001=Tox21_200365, viability, 1 nM T3 present, 24 h) was > 90 µM.

As for `C=Cc1ccccn1` [2-Vinylpyridine], the CC50 at 24 h (AC50 (uM) modified / 1000) is > 90 µM. On the same count and under the same terms, next, `Cc1cccc(N)c1` [3-Methylaniline hydrochloride]: > 90 µM. The same measure, in the same setting: the result for `COc1ccc(-c2noc(CC(=O)O)c2-c2ccc(OC)cc2)cc1` [Mofezolac] reads > 50 µM; that for `C1CCC(SSC2CCCCC2)CC1` [Dicyclohexyl disulfide], > 90 µM.

The values are drawn from publication PMC6792352, “Limited Chemical Structural Diversity Found to Modulate Thyroid Hormone Receptor in the Tox21 Chemical Library” (Environmental Health Perspectives, 2019).
